Measurements published in patent publication US11498928B2, “Macrocyclic spiroethers as Mcl-1 inhibitors” (ASCENTAGE PHARMA (SUZHOU) CO., LTD., priority 2019, dated 2022).

Legend:
[1] = test system: OPM-2 cells; test: Cell viability assay (OPM-2 cells), CCK-8; assay type: cell-based; settings: Homo sapiens, OPM-2, 24 h, 5% FBS
How it was run: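 OPM-2 myeloma cells (20000/well) exposed to serially diluted compound for 24 h at 37 °C, 5% CO2, then incubated 4 h with CCK-8 and read at 450 nm. Readings normalized to vehicle; IC50 from nonlinear regression.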

[2] = biological target: T1, Mcl-1 protein (residues 171-323) (Homo sapiens, UniProt Q07820); test: Inhibition of Mcl-1 by fluorescence polarization (FP) competitive binding assay with FAM-Bid tracer; settings: 2 nM FAM-Bid, 20 nM Mcl-1, 30 min
T1 construct: Tag-free Mcl-1 protein (residues 171-323) was used in the FP assay
How it was run: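 Tag-free Mcl-1 (20 nM) with 2 nM FAM-Bid peptide in PBS, 0.01% BGG, 0.01% Triton X-100, 5% DMSO, 30 min at room temperature. FP read at Ex 485/Em 528 nm. IC50 from 10-point curves normalised to DMSO and no-protein controls.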

[3] = test system: NCI-H929 cells; test: Cell viability assay (NCI-H929 cells), CCK-8; assay type: cell-based; settings: Homo sapiens, NCI-H929, 24 h, 5% FBS
How it was run: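 NCI-H929 cells from ATCC were seeded at 20000 cells/well in 95 μL of culture medium in 96-well plates and grown for 4 hrs. Compounds, serially diluted in DMSO and further diluted in medium, were added as 5 μL, and cells were incubated for 24 hrs at 37° C. with 5% CO2. Viability was measured with CCK-8.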

T1 sequence (Q07820 171-323): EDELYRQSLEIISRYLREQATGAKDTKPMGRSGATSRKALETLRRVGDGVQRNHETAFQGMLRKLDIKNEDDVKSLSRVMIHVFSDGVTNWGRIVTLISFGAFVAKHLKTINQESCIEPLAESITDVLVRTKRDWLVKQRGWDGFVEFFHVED

| IC50 [2] | IC50 [3] | Compound | IC50 [1] |
| --- | --- | --- | --- |
| 16 nM | 66 nM | CNCCO[C@H]1C2=C[C@@H](C2)[C@H](C)[C@@H](C)S(=O)(=O)NC(=O)c2ccc3c(c2)N(C[C@@H]2CC[C@H]21)C[C@@]1(CCCc2c1ccc(Cl)c2F)CO3 [compound 78, (1S,11′R,12′S,13′R,16′R,16a′R,18a′R,E)-6-chloro-5-fluoro-11′,12′-dimethyl-16′-(2-(methylamino)ethoxy)-3,4,12′,13′,16′,16a′,17′,18′,18a′,19′-decahydro-1′H,2H,3′H, 11′H-spiro[naphthalene-1,2′-[5,7]etheno[13,15]methanocyclobuta[i][1,4]oxazepino[3,4-f][1]thia[2,7]diazacyclohexadecin]-8′(9′H)-one 10′,10′-dioxide] | 184 nM |
| 31 nM | 56 nM | C[C@@H]1[C@@H](C)S(=O)(=O)NC(=O)c2ccc3c(c2)N(C[C@@H]2CC[C@H]2[C@@H](OCCN2C[C@@H](C)O[C@@H](C)C2)C2=C[C@H]1C2)C[C@@]1(CCCc2c1ccc(Cl)c2F)CO3 [compound 82, (1S,11′R,12′S,13′R,16′R,16a′R,18a′R,E)-6-chloro-16′-(2-((2S,6R)-2,6-dimethylmorpholino)ethoxy)-5-fluoro-11′,12′-dimethyl-3,4,12′,13′,16′,16a′,17′,18′,18a′,19′-decahydro-1′H,2H,3′H,11′H-spiro[naphthalene-1,2′-[5,7]etheno[13,15]methanocyclobuta[i][1,4]oxazepino[3,4-f][1]thia[2,7]diazacyclohexadecin]-8′(9′H)-one 10′,10′-dioxide] | 54 nM |
| 25 nM | 220 nM | C[C@@H]1[C@@H](C)S(=O)(=O)NC(=O)c2ccc3c(c2)N(C[C@@H]2CC[C@H]2[C@@H](OCCN2C[C@@H](C)N[C@@H](C)C2)C2=C[C@H]1C2)C[C@@]1(CCCc2c1ccc(Cl)c2F)CO3 [compound 83, (1S,11′R,12′S,13′R,16′R,16a′R,18a′R,E)-6-chloro-16′-(2-((3 S,5R)-3,5-dimethylpiperazin-1-yl)ethoxy)-5-fluoro-11′,12′-dimethyl-3,4,12,′13′,16′,16a′,17′,18′,18a′,19′-decahydro-1′H,2H,3′H,11′H-spiro[naphthalene-1,2′-[5,7]etheno[13,15]methanocyclobuta[i][1,4]oxazepino[3,4-f][1]thia[2,7]diazacyclohexadecin]-8′(9′H)-one 10′,10′-dioxide] | 164 nM |
| 20 nM | 76 nM | C[C@@H]1[C@@H](C)S(=O)(=O)NC(=O)c2ccc3c(c2)N(C[C@@H]2CC[C@H]2[C@@H](OCCN2C[C@@H](C)N(C)[C@@H](C)C2)C2=C[C@H]1C2)C[C@@]1(CCCc2c1ccc(Cl)c2F)CO3 [compound 84, (1S,11′R,12′S,13′R,16′R,16a′R,18a′R,E)-6-chloro-5-fluoro-11′,12′-dimethyl-16′-(2-((3 S,5R)-3,4,5-trimethylpiperazin-1-yl)ethoxy)-3,4,12′,13′,16′,16a′,17′,18′,18a′,19′-decahydro-1′H,2H,3′H, 11′H-spiro[naphthalene-1,2′-[5,7]etheno[13,15]methanocyclobuta[i][1,4]oxazepino[3,4-f][1]thia[2,7]diazacyclohexadecin]-8′(9′H)-one 10′,10′-dioxide] | 65 nM |
| 20 nM | 73 nM | C[C@@H]1[C@@H](C)S(=O)(=O)NC(=O)c2ccc3c(c2)N(C[C@@H]2CC[C@H]2[C@@H](OCCN2CCNC(=O)C2)C2=C[C@H]1C2)C[C@@]1(CCCc2c1ccc(Cl)c2F)CO3 [compound 85, (1S,11′R,12′S,13′R,16′R,16a′R,18a′R,E)-6-chloro-5-fluoro-11′,12′-dimethyl-16′-(2-(3-oxopiperazin-1-yl)ethoxy)-3,4,12′,13′,16′,16a′,17′,18′,18a′,19′-decahydro-1′H,2H,3′H, 11′H-spiro[naphthalene-1,2′-[5,7]etheno[13,15]methanocyclobuta[i][1,4]oxazepino[3,4-f][1]thia[2,7]diazacyclohexadecin]-8′(9′H)-one 10′,10′-dioxide] | 124 nM |
| 10 nM | 3.8 nM | C[C@@H]1[C@@H](C)S(=O)(=O)NC(=O)c2ccc3c(c2)N(C[C@@H]2CC[C@H]2[C@@H](OCCN2CCN(C)CC2)C2=C[C@H]1C2)C[C@@]1(CCCc2c1ccc(Cl)c2F)CO3 [compound 86, (1S,11′R,12′S,13′R,16′R,16a′R,18a′R,E)-6-chloro-5-fluoro-11′,12′-dimethyl-16′-(2-(4-methylpiperazin-1-yl)ethoxy)-3,4,12′,13′,16′,16a′,17′,18′,18a′,19′-decahydro-1′H,2H,3′H, 11′H-spiro[naphthalene-1,2′-[5,7]etheno[13,15]methanocyclobuta[i][1,4]oxazepino[3,4-f][1]thia[2,7]diazacyclohexadecin]-8′(9′H)-one 10′,10′-dioxide] | 64 nM |

Continued, compound first:

| Compound | IC50 [2] | IC50 [3] | IC50 [1] |
| --- | --- | --- | --- |
| C[C@@H]1[C@@H](C)S(=O)(=O)NC(=O)c2ccc3c(c2)N(C[C@@H]2CC[C@H]2[C@@H](OCCN2CCN(S(C)(=O)=O)CC2)C2=C[C@H]1C2)C[C@@]1(CCCc2c1ccc(Cl)c2F)CO3 [compound 76, (1S,11′R,12′5,13′R,16′R,16a′R,18a′R,E)-6-chloro-5-fluoro-11′,12′-dimethyl-16′-(2-(4-(methylsulfonyl)piperazin-1-yl)ethoxy)-3,4,12′,13′,16′,16a′,17′,18′,18a′,19′-decahydro-1′H,2H,3′H,11′H-spiro[naphthalene-1,2′-[5,7]etheno[13,15]methanocyclobuta[i][1,4]oxazepino[3,4-f][1]thia[2,7]diazacyclohexadecin]-8′(9′H)-one 10′,10′-dioxide] | 21 nM | 37 nM | 206 nM |
| C[C@@H]1[C@@H](C)S(=O)(=O)NC(=O)c2ccc3c(c2)N(C[C@@H]2CC[C@H]2[C@@H](OCCN(C)C)C2=C[C@H]1C2)C[C@@]1(CCCc2c1ccc(Cl)c2F)CO3 [compound 77, (1S,11′R,12′S,13′R,16′R,16a′R,18a′R,E)-6-chloro-16′-(2-(dimethylamino)ethoxy)-5-fluoro-11′,12′-dimethyl-3,4,12′,13′,16′,16a′,17′,18′,18a′,19′-decahydro-1′H,2H,3′H,1 PH-spiro[naphthalene-1,2′-[5,7]etheno[13,15]methanocyclobuta[i][1,4]oxazepino[3,4-f][1]thia[2,7]diazacyclohexadecin]-8′(9′H)-one 10′,10′-dioxide] | 8.5 nM | 5.3 nM | 68 nM |
| C[C@@H]1[C@@H](C)S(=O)(=O)NC(=O)c2ccc3c(c2)N(C[C@@H]2CC[C@H]2[C@@H](OCCN(C)S(C)(=O)=O)C2=C[C@H]1C2)C[C@@]1(CCCc2c1ccc(Cl)c2F)CO3 [compound 79, N-(2-(((1S,11′R,12′S,13′R,16′R,16a′R,18a′R,E)-6-chloro-5-fluoro-11′,12′-dimethyl-10′,10′-dioxido-8′-oxo-3,4,8′,9′,12′,13′,16′,16a′,17′,18′,18a′,19′-dodecahydro-1′H,2H,3′H, 11′H-spiro[naphthalene-1,2′-[5,7]etheno[13,15]methanocyclobuta[i][1,4]oxazepino[3,4-f][1]thia[2,7]diazacyclohexadecin]-16′-yl)oxy)ethyl)-N-methylmethanesulfonamide] | 15 nM | 58 nM | 53 nM |
| CC(=O)N(C)CCO[C@H]1C2=C[C@@H](C2)[C@H](C)[C@@H](C)S(=O)(=O)NC(=O)c2ccc3c(c2)N(C[C@@H]2CC[C@H]21)C[C@@]1(CCCc2c1ccc(Cl)c2F)CO3 [compound 80, N-(2-(((1S,11′R,12′S,13′R,16′R,16a′R,18a′R,E)-6-chloro-5-fluoro-11′,12′-dimethyl-10′,10′-dioxido-8′-oxo-3,4,8′,9′,12′,13′,16′,16a′,17′,18′,18a′,19′-dodecahydro-1′H,2H,3′H, 11′H-spiro[naphthalene-1,2′-[5,7]etheno[13,15]methanocyclobuta[i][1,4]oxazepino[3,4-f][1]thia[2,7]diazacyclohexadecin]-16′-yl)oxy)ethyl)-N-methylacetamide] | 13 nM | 62 nM | 158 nM |
| C[C@@H]1[C@@H](C)S(=O)(=O)NC(=O)c2ccc3c(c2)N(C[C@@H]2CC[C@H]2[C@@H](OCCN2CC4(CN(C)C4)C2)C2=C[C@H]1C2)C[C@@]1(CCCc2c1ccc(Cl)c2F)CO3 [compound 81, (1S,11′R,12′S,13′R,16′R,16a′R,18a′R,E)-6-chloro-5-fluoro-11′,12′-dimethyl-16′-(2-(6-methyl-2,6-diazaspiro[3.3]heptan-2-yl)ethoxy)-3,4,12′,13′,16′,16a′,17′,18′,18a′,19′-decahydro-1′H,2H,3′H, 11′H-spiro[naphthalene-1,2′-[5,7]etheno[13,15]methanocyclobuta[i][1,4]oxazepino[3,4-f][1]thia[2,7]diazacyclohexadecin]-8′(9′H)-one 10′,10′-dioxide] | 17 nM | 360 nM | 667 nM |
| CC(=O)N1CCN(CCO[C@H]2C3=C[C@@H](C3)[C@H](C)[C@@H](C)S(=O)(=O)NC(=O)c3ccc4c(c3)N(C[C@@H]3CC[C@H]32)C[C@@]2(CCCc3c2ccc(Cl)c3F)CO4)CC1 [compound 87, (1S,11′R,12′S,13′R,16′R,16a′R,18a′R,E)-16′-(2-(4-acetylpiperazin-1-yl)ethoxy)-6-chloro-5-fluoro-11′,12′-dimethyl-3,4,12′,13′,16′,16a′,17′,18′,18a′,19′-decahydro-1′H,2H,3′H, 11′H-spiro[naphthalene-1,2′-[5,7]etheno[13,15]methanocyclobuta[i][1,4]oxazepino[3,4-f][1]thia[2,7]diazacyclohexadecin]-8′(9′H)-one 10′,10′-dioxide] | 8.5 nM | 27 nM | 369 nM |
